PMC4979060, “Structural basis of metallo-β-lactamase, serine-β-lactamase and penicillin-binding protein inhibition by cyclic boronates” (Nature Communications, 2016)

What was measured:
BcII = target: T1, BcII (Bacillus cereus, UniProt P04190); experiment: Fluorogenic β-lactamase inhibition assay (FC-5 substrate), BcII; type: biochemical
T1 construct: made in house; host or cells: E. coli
Protocol: (§1) Kinetic and inhibition analyses, and ^19F NMR studies[10] against bacterial β-lactamases were performed as described. The FC-5 cephalosporin[9] was used as substrate for BcII, VIM-2, IMP-1, NDM-1, SPM-1, TEM-1 and OXA-10, meropenem[28] for CphA and nitrocefin[34] for PBP 3 and PBP 5.
(§2) In brief IC50 values were determined by preincubation of the appropriate amount of enzyme with the cyclic boronates in the assay buffers for 10 min at room temperature prior to the initiation of the assay by the addition of the appropriate substrate. The enzyme concentrations used are the following: 1 nM BcII, 100 nM VIM-2, 10 nM IMP-1, 10 nM NDM-1, 1 nM SPM-1, 1 nM TEM-1, 1 nM OXA-10, 2.5 nM CphA, 4 μM PBP 3 and 5 μM PBP 5; note that the final concentrations are stated. The assay buffers used are the following: 50 mM HEPES, pH 7.2 supplemented with 1 μg BSA, 1 μg ZnSO4 and 0.01% Triton for BcII, VIM-2, IMP-1, NDM-1 and SPM-1, 15 mM MES, pH 6.5 for CphA, 50 mM HEPES, pH 7.2 supplemented with 200 mM NaCl and 0.01% Triton 100 for TEM-1, 100 mM sodium phosphate, pH 7.2 supplemented with 50 mM NaHCO3 and 0.01% Triton 100 for OXA-10 and 50 mM HEPES, pH 7.2 supplemented with 200 mM NaCl and 0.01% Triton 100 for PBP 3 and PBP 5. The amount of substrates used is the following: 5 μM for BcII, VIM-2, IMP-1, NDM-1 and SPM-1, 10 μM for TEM-1 and OXA-10, 125 μM for CphA and 25 μM for PBP 3 and PBP 5; note that the final concentrations are stated.
(§3) The experiments were performed using a PHERAstar FS microplate reader (BMG Labtech) at room temperature (24–25 °C). All enzymes and inhibitors were prepared in the specific assay buffer. The kinetic values in this study are the means from at least three independent measurements; at least nine different concentrations of the inhibitor were used to determine the kinetic parameters (IC50). The IC50 values were determined using the software package Graph Prism 5.

NDM-1 = target: T2, NDM-1 (Klebsiella pneumoniae, UniProt C7C422); experiment: Fluorogenic β-lactamase inhibition assay (FC-5 substrate), NDM-1; type: biochemical
T2 construct: made in house; host or cells: E. coli
Protocol: as §1, §2, §3

SPM-1 = SPM-1 (Pseudomonas aeruginosa, UniProt Q8G9Q0); experiment: Fluorogenic β-lactamase inhibition assay (FC-5 substrate), SPM-1; type: biochemical
Protocol: as §1, §2, §3

TEM-1 = target: T3, TEM-1 (Escherichia coli, UniProt P62593); experiment: Fluorogenic β-lactamase inhibition assay (FC-5 substrate), TEM-1; type: biochemical
T3 construct: made in house; host or cells: E. coli
Protocol: as §1, §2, §3

PBP 5 (dacA) = target: T4, PBP 5 (dacA) (Escherichia coli, UniProt P0AEB2); experiment: PBP inhibition assay (nitrocefin substrate), PBP 5; type: biochemical
T4 construct: made in house; host or cells: E. coli
Protocol: as §1
In brief IC50 values were determined by preincubation of the appropriate amount of enzyme with the cyclic boronates in the assay buffers for 10 min at room temperature prior to the initiation of the assay by the addition of the appropriate substrate. The enzyme concentrations used are the following: 1 nM BcII, 100 nM VIM-2, 10 nM IMP-1, 10 nM NDM-1, 1 nM SPM-1, 1 nM TEM-1, 1 nM OXA-10, 2.5 nM CphA, 4 μM PBP 3 and 5 μM PBP 5; note that the final concentrations are stated. […]
The experiments were performed using a PHERAstar FS microplate reader (BMG Labtech) at room temperature (24–25 °C). […] The IC50 values were determined using the software package Graph Prism 5.

PBP 3 = target: T5, PBP 3 (Pseudomonas aeruginosa, UniProt G3XD46); experiment: PBP inhibition assay (nitrocefin substrate), PBP 3; type: biochemical; settings: NI = no inhibition at 100 μM, read-out: IC50 (μM)/pIC50 (converted)
T5 construct: made in house; host or cells: E. coli
Protocol: as §1, §2, §3

K. pneumoniae IR8 = experiment: microbe, parasite or virus in culture; type: cell-based; settings: Klebsiella pneumoniae; 2 alone; K. pneumoniae IR8 (blaSHV-1; blaDHA-1; blaCTX-M-15; blaTEM-1; blaNDM-1); read-out: 2 MIC
Text: (§4) Bacterial strains: E. coli ATCC 25922 (ref. [35]) and K. pneumoniae NCTC 5055 (ref. [36]) were used as reference strains. K. pneumoniae Ecl8 (ref. [16]) and its ramR knock-out[37] were used as previously described. K. pneumoniae strain IR8 (ref. [40]), and E. coli strains IR10 and IR60 (ref. [17]) were generous gifts of Prof. T.R. Walsh. Plasmid pSU18:NDM-1 contains the complete blaNDM-1 open reading frame, together with its promoter, cloned into plasmid pSU18 (ref. [41]). The recombinant plasmid was made by PCR amplifying the blaNDM-1 gene and surrounding sequences from E. coli IR10 with primers NDM1F 5′- […] -3′ and NDM1R 5′- GGCGATGACAGCATCATC -3′, TA cloning the amplicon into pCR2.1 TOPO (Invitrogen) and subcloning into pSU18 using BamHI and XbaI.
(§5) MIC values were determined by broth microdilution, in triplicate, in cation-adjusted Mueller Hinton broth (Sigma) according to the Clinical Laboratory Standards Institute (CLSI) guidelines. Experiments were carried out in microtitre plates (Corning) containing the medium plus meropenem (Sequoia Research Products, Pangbourne, UK) and/or inhibitor 2 as appropriate. Chloramphenicol (20 μg ml^−1) was included in assays of strains (K. pneumoniae Ecl8 and derivative) that carried pSU18 plasmids or derivatives (pSU18:NDM-1) to ensure maintenance of plasmids throughout. Inhibitor 2 was dissolved in DMSO to 100 mg ml^−1 and diluted in broth. The final concentration of DMSO in the assays was kept constant at 0.01% (experiments using 10 μg ml^−1 inhibitor) or 0.03% (experiments using 25 μg ml^−1 inhibitor). Plates were incubated overnight at 37 °C for 18–24 h and absorbance at 600 nm read using a Polarstar Omega (BMG LabTech) plate reader.

E. coli ATCC 25922 = experiment: MIC by broth microdilution; type: cell-based; settings: data not shown
Text: as §4, §5

[1] = test system: K pneumoniae Ecl8 ΔramR pSU18:NDM-1; experiment: MIC by broth microdilution; type: cell-based; settings: Klebsiella pneumoniae, read-out: 2 MIC, 2 alone; Ecl8 ΔramR pSU18:NDM-1 (blaSHV-1; blaNDM-1)
Text: as §4, §5

K. pneumoniae Ecl8 pSU18 = experiment: MIC by broth microdilution; type: cell-based; settings: Klebsiella pneumoniae, ECL8PSU18, read-out: 2 MIC
Text: as §4, §5

K. pneumoniae NCTC 5055 = experiment: MIC by broth microdilution; type: cell-based; settings: data not shown
Text: as §4, §5

T2 sequence (C7C422 29-270, looked up, species assumed): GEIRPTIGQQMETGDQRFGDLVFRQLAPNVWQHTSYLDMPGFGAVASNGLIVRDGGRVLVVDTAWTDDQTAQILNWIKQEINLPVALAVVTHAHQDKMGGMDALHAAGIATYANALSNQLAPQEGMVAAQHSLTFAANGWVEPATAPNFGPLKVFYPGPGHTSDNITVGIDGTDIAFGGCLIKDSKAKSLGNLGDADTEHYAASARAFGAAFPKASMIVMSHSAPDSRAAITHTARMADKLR
T1 sequence (P04190 31-257): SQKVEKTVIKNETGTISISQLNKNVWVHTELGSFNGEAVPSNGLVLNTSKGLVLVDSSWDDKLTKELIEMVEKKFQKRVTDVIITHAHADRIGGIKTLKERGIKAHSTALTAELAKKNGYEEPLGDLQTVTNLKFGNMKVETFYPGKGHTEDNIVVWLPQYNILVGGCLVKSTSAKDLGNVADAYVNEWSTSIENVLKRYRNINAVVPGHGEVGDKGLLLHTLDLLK
T3 sequence (P62593 24-286 limits assumed): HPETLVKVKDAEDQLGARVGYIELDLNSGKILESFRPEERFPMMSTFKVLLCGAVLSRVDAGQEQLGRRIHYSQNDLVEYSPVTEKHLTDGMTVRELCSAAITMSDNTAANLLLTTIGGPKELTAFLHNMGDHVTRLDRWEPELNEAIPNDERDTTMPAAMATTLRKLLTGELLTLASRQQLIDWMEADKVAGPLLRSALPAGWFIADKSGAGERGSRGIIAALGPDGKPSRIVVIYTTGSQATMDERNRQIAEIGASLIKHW
T4 sequence (P0AEB2 30-403): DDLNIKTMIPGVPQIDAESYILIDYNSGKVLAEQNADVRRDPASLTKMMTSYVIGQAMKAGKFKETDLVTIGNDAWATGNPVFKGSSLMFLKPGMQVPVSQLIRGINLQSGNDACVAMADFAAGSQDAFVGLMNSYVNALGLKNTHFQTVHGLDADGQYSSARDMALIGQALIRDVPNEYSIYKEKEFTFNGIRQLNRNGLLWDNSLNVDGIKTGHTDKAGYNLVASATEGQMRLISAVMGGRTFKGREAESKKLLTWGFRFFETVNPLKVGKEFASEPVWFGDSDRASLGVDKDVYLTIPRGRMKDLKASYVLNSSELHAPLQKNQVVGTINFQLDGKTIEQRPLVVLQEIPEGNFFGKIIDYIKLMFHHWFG
SPM-1, sequence (Q8G9Q0 entry or part of it): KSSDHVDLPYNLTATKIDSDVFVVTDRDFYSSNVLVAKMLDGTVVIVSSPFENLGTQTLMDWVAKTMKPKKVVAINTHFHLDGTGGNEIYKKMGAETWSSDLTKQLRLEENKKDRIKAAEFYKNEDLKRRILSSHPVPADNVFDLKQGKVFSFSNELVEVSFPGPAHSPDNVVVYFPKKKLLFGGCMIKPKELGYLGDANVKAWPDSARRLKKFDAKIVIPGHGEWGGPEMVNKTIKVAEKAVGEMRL
T5 sequence (G3XD46 whole entry): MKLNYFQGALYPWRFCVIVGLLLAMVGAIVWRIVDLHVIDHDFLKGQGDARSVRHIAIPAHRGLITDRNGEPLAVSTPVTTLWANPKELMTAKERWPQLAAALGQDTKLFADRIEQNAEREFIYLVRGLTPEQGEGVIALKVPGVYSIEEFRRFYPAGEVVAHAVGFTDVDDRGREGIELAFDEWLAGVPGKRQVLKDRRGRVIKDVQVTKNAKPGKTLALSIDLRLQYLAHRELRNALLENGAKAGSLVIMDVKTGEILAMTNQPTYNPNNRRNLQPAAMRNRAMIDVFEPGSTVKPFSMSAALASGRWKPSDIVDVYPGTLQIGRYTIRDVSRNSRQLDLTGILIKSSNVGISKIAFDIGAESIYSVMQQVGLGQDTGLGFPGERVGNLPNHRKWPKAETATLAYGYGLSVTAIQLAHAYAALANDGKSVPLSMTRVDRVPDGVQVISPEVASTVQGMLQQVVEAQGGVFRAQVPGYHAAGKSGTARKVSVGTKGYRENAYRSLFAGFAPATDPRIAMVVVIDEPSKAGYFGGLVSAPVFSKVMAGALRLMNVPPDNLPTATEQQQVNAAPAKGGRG

Compound NCc1ccc(C(=O)N[C@H]2Cc3cccc(C(=O)O)c3O[B-]2(O)O)cc1 [compound 2] has a pIC50 (BcII) of 6.5, an IC50 (BcII; 10 min preincubation) of 300 nM and a pIC50 (NDM-1) of 7.5. The IC50 (NDM-1; 10 min preincubation) was 29 nM, the pIC50 (SPM-1) was 4.7 and the IC50 (SPM-1; 10 min preincubation) was 16700 nM. It also gave a pIC50 (TEM-1) of 8.4, an IC50 (TEM-1; 10 min preincubation) of 3 nM and a pIC50 (PBP 5 (dacA)) of 8.7. It also gave an IC50 (PBP 5 (dacA); 10 min preincubation) of 1.6 nM, an IC50 (PBP 3) greater than 100 µM and an MIC (K. pneumoniae IR8) greater than 128 µg/mL. For the same compound, the “antibacterial activity of 2 alone (highest concentration without activity)” value (E. coli ATCC 25922) was greater than 128 µg/mL, the MIC [1] was greater than 128 µg/mL and the MIC (K. pneumoniae Ecl8 pSU18) was greater than 128 µg/mL. The “antibacterial activity of 2 alone (highest concentration without activity)” value (K. pneumoniae NCTC 5055) was greater than 128 µg/mL.
